Laboratory results from patent US20230257715A1, “COMPOSITIONS AND METHODS FOR REGULATING ENTEROENDOCRINE CELL DIFFERENTIATION AND USES THEREOF” (The Children's Medical Center Corporation, priority 2020, published 2023).
“And” between values parts separate entries of the source, which are not always exact repeats. Equal entries are not always repeated. “Also recorded” adds a separate entry of the source.

Tests used:
Format in all cases: cell-based
[1] = system: human duodenal enteroids; experiment: Immunofluorescence staining of lineage markers CK20, MUC2, LYZ in enteroids
Method: (§1) Immunofluorescence staining was performed as previously described with minor modifications (Dekkers J F, Alieva M, Wellens L M, et al. Nat Protoc 2019; 14:1l756-1771)^32. Organoids were grown in and isolated from Matrigel® as noted above. 1-3 wells from a 24-well plate were washed in 200 μL of 1× phosphate-buffered saline (PBS) and moved in suspension to a 1.5 mL microcentrifuge tube. Each tube was centrifuged at 800×g for 5 minutes at 4° C. to pellet organoids. PBS was aspirated, and organoids were fixed in 200 μL of 4% paraformaldehyde (PFA) for 20 minutes on ice, shaking. Each tube was centrifuged again as above, and PFA was aspirated. The organoids were then resuspended in 500 μL of 0.3% Triton-X in PBS and moved to a 48-well plate for the remaining steps. The organoids were permeabilized for 30 minutes at room temperature, shaking. Between each step, organoids were allowed to settle to the bottom of each well, the plate was angled, and the solution aspirated by careful pipetting. Organoids were then blocked with 5% bovine serum albumin in PBS for 1.5 hours at room temperature, shaking. This was followed by three five-minute washes in 500 μL of PBS at room temperature, shaking.
(§2) Each well was then incubated in 200 μL of primary antibodies diluted in 5% BSA/0.1% Trition-X in PBS at 4° C. overnight. This was followed by five washes in 500 μL of 0.1% Triton-X in PBS for 15 minutes each at room temperature, shaking. 200 μL of secondary antibodies, including Alexa Fluor 488- or 647-conjugated anti-mouse (Invitrogen, A-21202, or A-31571, 1:400), Alexa Fluor 488-conjugated anti-rat (Invitrogen, A-21208, 1:400), Alexa Fluor 488-conjugated anti-goat (Invitrogen, A-11055, 1:400) or Alexa Fluor 647-conjugated anti-rabbit (Invitrogen, A-31573, 1:400), diluted in 0.1% Triton-X in PBS, which were then added to each well and incubated for two hours at room temperature, shaking. Organoids were then washed as above, then moved to new 1.5 mL centrifuge tubes. […]

[2] = system: human duodenal enteroids; experiment: Hormone ELISA (5HT, GIP) of enteroid conditioned media; conditions: last two days of differentiation
Method: Hormone quantification for GIP (MilliporeSigma, […]), GLP-1, PYY, and serotonin (Eagle Biosciences/DLD Diagnostika GmbH, SER39-KO1) and were performed using kits and following manufacturer's protocols. For these experiments, organoids were grown in 48-well plates to aid in concentrating the hormone of interest. Conditioned media was taken on day 14 of differentiation. For GIP quantification, Diprotin A (Tocris, 6019, 100 μM), a dipeptidyl peptidase 4 inhibitor, was added daily to the media for the last two days of differentiation to prevent GIP and GLP-1 degradation. For hormone induction studies, forskolin (Fsk) (10 μM) was added to fresh media 24-hours prior to conditioned media being taken. As an additional control, differentiation media not exposed to cells was also evaluated. This value was then subtracted from each experimental sample.

[3] = system: human duodenal enteroids; experiment: Immunofluorescence staining of hormones (SST, 5HT, GIP, CCK) in enteroids; conditions: 14-day protocol
Method: as §1
as §2, with “tubes. During the last wash, 4′,6-diamidino-2-phenylindole (DAPI, Life Technologies, D1306) was added at a concentration of 1:1000 for nuclear staining. Organoids were then centrifuged at 1000×g for 5 minutes at 4° C. to assist in removal of as much PBS as possible. Slides were prepared by drawing three circles with a hydrophobic pen (Vector Laboratories, H-4000). Enteroids were then resuspended in 20 μL of Prolong Gold Antifade mountant (Life Technologies, P36930), and droplets placed within hydrophobic circles.” for “tubes.”
(§3) This technique was adapted from a previously described method (Borten M A, Bajikar S S, Sasaki N, et al. Sci Rep 2018; 8:5319)^69. […] Any remaining clumped enteroids were manually separated prior to quantification. […]

[4] = system: human duodenal enteroids; experiment: Immunofluorescence staining of CHGA, percentage of CHGA-positive enteroids
Method: Immunofluorescence staining was performed as previously described with minor modifications (Dekkers J F, Alieva M, Wellens L M, et al. Nat Protoc 2019; 14:1l756-1771)^32. Organoids were grown in and isolated from Matrigel® as noted above. 1-3 wells from a 24-well plate were washed in 200 μL of 1× phosphate-buffered saline (PBS) and moved in suspension to a 1.5 mL microcentrifuge tube. Each tube was centrifuged at 800×g for 5 minutes at 4° C. to pellet organoids. PBS was aspirated, and organoids were fixed in 200 μL of 4% paraformaldehyde (PFA) for 20 minutes on ice, shaking. Each tube was centrifuged again as above, and PFA was aspirated. The organoids were then resuspended in 500 μL of 0.3% Triton-X in PBS and moved to a 48-well plate for the remaining steps. The organoids were permeabilized for 30 minutes at room temperature, shaking. Between each step, organoids were allowed to settle to the bottom of each well, the plate was angled, and the solution aspirated by careful pipetting. Organoids were then blocked with 5% bovine serum albumin in PBS for 1.5 hours at room temperature, shaking. This was followed by three five-minute washes in 500 μL of PBS at room temperature, shaking. […]
as §3

For CCn1cc(C(=O)O)c(=O)c2c(N)c(F)c(NC3CCCCC3)cc21 [AS, AS1842856], the “lysozyme (LYZ) immunofluorescence staining” value [1] was “expressed”, the “mucin 2 (MUC2) immunofluorescence staining” value [1] was “lesser degree” and the “cytokeratin 20 (CK20) immunofluorescence staining” value ([1]; enterocyte marker) was “lesser degrees”. For the same compound, the “5HT secretion (ELISA of conditioned media)” value [2] was “promoted serotonin (5HT) production and secretion; also recorded: higher levels of 5HT secretion than all other conditions”, the “GIP secretion (ELISA of conditioned media)” value [2] was “no secretion of GIP” and the “percentage of CCK-positive enteroids” value [3] was 4.5%. For the same compound, the “percentage of GIP-positive enteroids” value [3] was 53%, the “percentage of enteroids containing SST-positive cells” value [3] was 42% and the “percentage of enteroids with positive 5HT staining” value [3] was 75%. The “CHGA expression by immunofluorescence staining (whole well, qualitative)” value ([4]; FIG. 5B legend) was “more” and the “percentage of enteroids containing CHGA+ cells (immunofluorescence)” value ([4]; enteroids, 14-day protocol) was 85% and 82%.
